According to patent US20120315290A1, “INHIBITORS OF LL-37 MEDIATED IMMUNE REACTIVITY TO SELF NUCLEIC ACIDS” (BOARD OF REGENTS, THE UNIVERSITY OF TEXAS SYSTEM, priority 2006, published 2012):
“Also recorded” adds a separate entry of the source. Where no end group is shown, it is not given here.

How the values were obtained:
[1] = system: LL-37-mediated activation of pDC; experiment: Inhibition of LL-37-mediated IFN-α induction in pDC; type: cell-based, human; conditions: pDC stimulated with LL-37 (10 μM) in presence of the substance
Protocol: (§1) (A) pDC were stimulated with LL-37 (10 μM) in the presence of pertussis toxin (PTX) or KN62 to block the FPRL-1 and the P2X pathway respectively. Furthermore agonistic W peptide and ATP were used to stimulate these pathways on pDC. (B) pDC were stimulated with LL-37 (10 μM) in the presence of increasing concentrations of chloroquine to block the endosomal TLR pathway. (C) PDC were pre-treated DNase I, TLR-9 inhibitor (IRS, 4 μM) or ctrl ODN sequences for 30 min and followed by incubation with LL-37 (10 μM), CpG 2216 (CpGA, 1 μM) or imiquimod (R837,10 μg/ml) for 24 h (A). The culture supernatants were analyzed for IFN-α production by ELISA. One representative experiment of three is shown.
Heparin (an anionic sugar) was preincubated for ½ h with LL-37 before stimulating pDC (thus associating with self-DNA released by dying cells in culture) or before adding genomic human DNA and subsequently stimulating pDC.
(§2) PDC from healthy donors were purified from freshly collected buffy coats. Briefly, PBMC were isolated by Ficoll-Hypaque density gradient centrifugation (GE Healthcare, Piscatway, N.J.) followed by positive sorting using anti-BDCA4-conjugated magnetic microbeads (Miltenyi Biotec, Auburn, Calif.). The recovered cells were stained with PE-Cy5-conjugated anti-CD4, APC-conjugated CD11c, and a cocktail of FITC-conjugated anti-CD3, anti-CD14, anti-CD16, anti-CD15, anti-CD20 and anti-CD56 (Lineage-FITC) (BD Pharmingen, San Diego, Calif.). The CD4+CD11c-Lin- (pDC precursors) were isolated by cell sorting. Purity was routinely >99%. PDC (5-10×10^4/well) were cultured in 96-well round-bottom plates in RPMI 1640 (GIBCO, Carlsbad, Calif.) supplemented with 10% FCS (Atlanta Biologicals, Lawrenceville, Ga.). Where indicated, pDC were stimulated with CpGA (1 μM), CpGB (1 μM), R837 (10 ug/ml), IRS (4 uM), non-CpG sequence (4 uM), and different concentrations of LL-37 and of human genomic DNA. To prepare LL-37.DNA complexes, CpGB, huDNA, non-CpG and LL-37 were mixed by inversion and incubated for 30 min at room temperature before being added to the cells.
(§3) Supernatants samples were taken after 18-24 h after addition of the stimuli. Human IFN-α was measured using a human IFN-α ELISA kit (PBL Biomedical Laboratories, New Brunswick, N.J.) according to the company's instructions. IL-6 and TNF-α were detected using a kit for human IL6 and TNF-α (R&D Systems), respectively.

[2] = system: plasmacytoid dendritic cells (pDC); experiment: IFN-α and cytokine production by purified human pDC (ELISA of supernatants); type: cell-based; conditions: for pDC activation to produce IFN-α: substance alone added to purified pDC
Description: as §2, §3

TLR7 = target: T1, TLR7 (Homo sapiens, UniProt Q9NYK1); experiment: Inhibition of IFN-α induction in pDC by TLR7 agonist imiquimod; type: cell-based
T1 construct: PDC from healthy donors were purified from freshly collected buffy coats; endogenous in cells; host or cells: primary human pDC sorted from buffy coats of healthy donors
T1 sequence (Q9NYK1 27-1049): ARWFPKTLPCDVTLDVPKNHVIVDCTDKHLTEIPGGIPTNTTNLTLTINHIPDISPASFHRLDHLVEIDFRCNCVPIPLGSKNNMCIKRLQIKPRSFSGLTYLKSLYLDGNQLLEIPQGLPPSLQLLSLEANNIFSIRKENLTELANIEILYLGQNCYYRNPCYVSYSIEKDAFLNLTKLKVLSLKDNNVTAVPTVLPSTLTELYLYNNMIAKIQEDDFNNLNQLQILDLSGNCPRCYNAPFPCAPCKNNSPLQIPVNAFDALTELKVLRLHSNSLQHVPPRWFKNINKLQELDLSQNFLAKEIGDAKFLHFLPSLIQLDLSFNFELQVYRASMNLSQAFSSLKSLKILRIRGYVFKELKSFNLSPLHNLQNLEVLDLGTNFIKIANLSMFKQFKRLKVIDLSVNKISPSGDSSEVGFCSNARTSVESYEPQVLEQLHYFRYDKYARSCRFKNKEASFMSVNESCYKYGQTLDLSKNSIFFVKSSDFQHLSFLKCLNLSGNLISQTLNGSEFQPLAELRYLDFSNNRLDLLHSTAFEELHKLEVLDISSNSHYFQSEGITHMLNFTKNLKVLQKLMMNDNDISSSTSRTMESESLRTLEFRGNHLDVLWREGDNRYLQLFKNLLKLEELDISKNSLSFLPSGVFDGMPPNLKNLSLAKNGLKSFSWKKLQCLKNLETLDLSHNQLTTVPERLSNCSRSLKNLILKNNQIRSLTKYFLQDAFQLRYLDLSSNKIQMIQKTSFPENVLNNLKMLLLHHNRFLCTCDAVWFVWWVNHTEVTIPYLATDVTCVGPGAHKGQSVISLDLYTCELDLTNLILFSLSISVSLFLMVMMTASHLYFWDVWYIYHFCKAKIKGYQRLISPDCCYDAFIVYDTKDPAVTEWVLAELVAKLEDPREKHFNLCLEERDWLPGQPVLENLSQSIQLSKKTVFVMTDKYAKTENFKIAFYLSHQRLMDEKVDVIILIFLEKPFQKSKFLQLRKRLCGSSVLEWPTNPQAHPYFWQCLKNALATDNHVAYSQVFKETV
Protocol: as §1
(§4) PDC from healthy donors were purified from freshly collected buffy coats. Briefly, PBMC were isolated by Ficoll-Hypaque density gradient centrifugation (GE Healthcare, Piscatway, N.J.) followed by positive sorting using anti-BDCA4-conjugated magnetic microbeads (Miltenyi Biotec, Auburn, Calif.). […]
as §3

TLR-9 = target: T2, TLR-9 (Homo sapiens, UniProt Q9NR96); experiment: Inhibition of IFN-α induction in pDC by TLR-9 agonist CpG sequences; type: cell-based
T2 construct: PDC from healthy donors were purified from freshly collected buffy coats; endogenous in cells; host or cells: primary human pDC sorted from buffy coats of healthy donors
T2 sequence (Q9NR96 26-1032): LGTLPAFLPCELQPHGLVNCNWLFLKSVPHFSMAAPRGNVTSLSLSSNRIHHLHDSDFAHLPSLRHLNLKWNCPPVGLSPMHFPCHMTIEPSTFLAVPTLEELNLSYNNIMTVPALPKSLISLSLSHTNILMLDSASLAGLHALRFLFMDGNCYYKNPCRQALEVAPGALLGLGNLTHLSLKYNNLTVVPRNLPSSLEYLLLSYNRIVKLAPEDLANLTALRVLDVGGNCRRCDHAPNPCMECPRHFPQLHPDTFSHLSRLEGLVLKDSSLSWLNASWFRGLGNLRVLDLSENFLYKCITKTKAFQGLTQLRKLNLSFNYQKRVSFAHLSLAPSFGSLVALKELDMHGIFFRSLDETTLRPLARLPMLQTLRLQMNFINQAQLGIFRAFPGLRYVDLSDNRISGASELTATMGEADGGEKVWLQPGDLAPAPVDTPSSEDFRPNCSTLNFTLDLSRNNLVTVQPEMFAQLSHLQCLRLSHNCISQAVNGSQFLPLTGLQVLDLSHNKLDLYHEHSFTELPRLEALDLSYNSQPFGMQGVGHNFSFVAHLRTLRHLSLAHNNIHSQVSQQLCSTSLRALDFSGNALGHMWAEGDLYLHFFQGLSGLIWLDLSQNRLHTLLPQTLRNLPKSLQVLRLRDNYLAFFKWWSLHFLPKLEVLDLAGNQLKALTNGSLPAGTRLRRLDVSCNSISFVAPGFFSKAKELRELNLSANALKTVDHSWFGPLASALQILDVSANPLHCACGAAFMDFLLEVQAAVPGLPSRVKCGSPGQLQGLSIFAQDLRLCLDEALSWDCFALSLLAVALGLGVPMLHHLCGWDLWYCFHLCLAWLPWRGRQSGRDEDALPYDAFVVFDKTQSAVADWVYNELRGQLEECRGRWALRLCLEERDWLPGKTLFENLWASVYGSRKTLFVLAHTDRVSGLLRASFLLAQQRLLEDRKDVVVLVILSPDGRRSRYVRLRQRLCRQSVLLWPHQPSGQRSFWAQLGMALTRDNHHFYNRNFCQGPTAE
Protocol: as §1, §4, §3

proteinase 3 = target: T3, proteinase 3 (Homo sapiens, UniProt P24158); experiment: Cleavage of LL-37 from propeptide hCAP18 in activated neutrophils (Western blot); type: cell-based; conditions: pretreatment of neutrophils, PMA activation
T3 construct: endogenous in cells
T3 sequence (P24158 28-248): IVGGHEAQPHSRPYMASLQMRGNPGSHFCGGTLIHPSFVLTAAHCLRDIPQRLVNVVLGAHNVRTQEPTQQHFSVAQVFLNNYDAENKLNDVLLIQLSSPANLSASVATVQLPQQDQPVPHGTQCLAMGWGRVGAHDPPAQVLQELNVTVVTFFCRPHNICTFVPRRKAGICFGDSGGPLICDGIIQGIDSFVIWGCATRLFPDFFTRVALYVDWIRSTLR

pDC [3] = experiment: pDC stimulation by supernatant of activated neutrophils (type I IFN); type: cell-based, human; conditions: neutrophils pretreated with inhibitor
Description: (Left panel) IFN-α released by pDC stimulated with NET w/o Pr-3 inhibitors, CpG, w/o Pr-3 inhibitors is used as positive control.
These findings indicate that proteinase 3 inhibitors block the generation of the mature LL-37 peptide, thus inhibiting the LL-37-mediated break of innate tolerance to self-nucleic acids.

human genomic DNA = experiment: Complex formation with DNA (ethidium bromide intercalation, size exclusion HPLC); type: binding
Description: (A) Emission spectra of human genomic DNA intercalated with Ethimidium bromide in the presence of increasing doses of LL-37. (B) Size exclusion HPLC of LL-37 alone, mut-LL-37 alone or DNA premixed with LL-37 or mut-37. […] Absorbance scales are different to accommodate the DNA peak.

pDC [4] = experiment: pDC viability; type: cell-based, human; conditions: not shown

## DNase I
[1]
  Effect on IFN-α induction by LL-37 in pDC: significantly inhibited

## CN([C@@H](Cc1ccc(OS(=O)(=O)c2cccc3cnccc23)cc1)C(=O)N1CCN(c2ccccc2)CC1)S(=O)(=O)c1cccc2cnccc12 [KN62, KN-62]
[1]
  Effect on IFN-α induction by LL-37 in pDC: did not inhibit IFN-α induction by LL-37

## Pertussis Toxin [PTX]
[1]
  Effect on IFN-α induction by LL-37 in pDC: did not inhibit IFN-α induction by LL-37

## GGGGGACGATCGTCGGGGGG [CpGA]
[2]
  IFN-α induction by pDC, single stranded form complexed to LL-37: restored
[2]; multimeric complex disrupted
  IFN-α induction by pDC, single stranded form (heat and flash cooling): strongly inhibited

## TTTAGGGTTAGGGTTAGGGTTAGGG (listed as DNA, chemistry not given here) [IRS]
TLR7
  Effect on IFN-α induction by TLR7 agonist imiquimod in pDC: not TLR7 agonist imiquimod
[1]
  Effect on IFN-α induction by LL-37 in pDC: inhibited pDC activation to produce IFN-α
TLR-9
  Effect on IFN-α induction by TLR-9 agonist CpG sequences in pDC: block IFN-α induction by TLR-9 agonist CpG-sequences

## CC(C)C[C@H](NC(=O)[C@@H](NC(=O)N[C@@H](Cc1ccccc1)C(=O)O)[C@@H]1CCN=C(N)N1)C(=O)N[C@H](C=O)Cc1ccccc1 [Chymostatin]
Proteinase 3
  Cleavage of the 4 kD LL-37 peptide from hCAP18: can be blocked; also recorded: block the cleavage of LL-37 from its propeptide hCAP
pDC [3]
  Capacity of activated neutrophils to stimulate pDC to produce type I IFNs: abrogated; also recorded: inhibit the activation of pDC by self-DNA released by neutrophils

## heparin
[1]
  Effect on IFN-α induction by LL-37 in pDC: completely abrogated; also recorded: inhibits the ability of LL-37 to induce IFN-α

## Nc1ncnc2c1ncn2[C@@H]1O[C@H](COP(=O)(O)OP(=O)(O)OP(=O)(O)O)[C@@H](O)[C@H]1O [ATP, Adenosin triphopshate]
[2]
  pDC activation to produce IFN-α: did not result in IFN-α production by pDC

## LLGDFFAVSKEKIGAEFVRIVQAIKDFLRNLVPRTES [mLL-37]
[2]
  pDC activation to produce IFN-α: complete abrogation of pDC activation
[2]; listed as mutated LL-37 peptide
  pDC activation to produce IFN-α: did not induce IFN-α
Human genomic DNA
  Complex formation with DNA: not able to complex with DNA

## TCGTCGTTTTGTCGTTTTGTCGTT [phosphothiorate CpG-B]
[2]
  IFN-α production by pDC stimulated with nucleic acid alone or combined with LL-37, as labelled: induced significant levels of IFN-α

## WKYMV-peptide [W peptide]
[2]
  pDC activation to produce IFN-α: did not result in IFN-α production by pDC

## CCN(CC)CCCC(C)Nc1ccnc2cc(Cl)ccc12 (stereo not drawn) [Chloroquine]
[1]
  Effect on IFN-α induction by LL-37 in pDC: inhibited LL-37-mediated IFN-α induction in a dose-dependent manner
pDC [4]
  Effect on pDC viability: no measurable effect on pDC viability

## HBD-3: AMP cultured with pDC at equimolar doses (GIINTLQKYYCRVRGGRCAVLSCLPKEEQIGKCSTRGRKCCRRKK; ends and bridges not checked; cysteine pairing not given here; UniProt P81534 23-67, looked up)
[2]
  pDC activation to produce IFN-α: did not induce pDC activation to produce IFN-α

## MeOSuc-CMK
Proteinase 3
  Cleavage of the 4 kD LL-37 peptide from hCAP18: can be blocked; also recorded: block the cleavage of LL-37 from its propeptide hCAP
pDC [3]
  Capacity of activated neutrophils to stimulate pDC to produce type I IFNs: abrogated; also recorded: inhibit the activation of pDC by self-DNA released by neutrophils

## TCGTCGTTTTGTCGTTTTGTCGTT [phophodiesteric CpG-B]
[2]
  IFN-α production by pDC stimulated with nucleic acid alone or combined with LL-37, as labelled: unable to induce IFN-α

B1: S100-7: AMP cultured with pDC at equimolar doses (protein, UniProt P31151 2-101, looked up)
Protein S100-A7: SNTQAERSIIGMIDMFHKYTRRDDKIEKPSLLTMMKENFPNFLSACDKKGTNYLADVFEKKDKNEDKKIDFSEFLSLLGDIATDYHKQSHGAAPCSGGSQ
[2]
  pDC activation to produce IFN-α: did not induce pDC activation to produce IFN-α
